According to patent US12139520B2 (priority 2020, dated 2024):
Bridge positions count the residues as written; N and C are the ends. Square brackets hold non-standard residues; d marks the D form. Peptide text beside a SMILES is read from it. Hyp = O=C(O)[C@@H]1C[C@@H](O)CN1; Cit = NC(=O)NCCC[C@H](N)C(=O)O

How the values were obtained:
hAMY3 receptor = biological target: T1, hAMY3 receptor (Homo sapiens, UniProt O60896+P30988); assay: cAMP assay for in vitro receptor activation, hAMY3-R; assay type: cell-based; settings: cAMP assay, hAMY3 receptor; read-out: hAMY3R EC50
T1 sequence (P30988 25-474): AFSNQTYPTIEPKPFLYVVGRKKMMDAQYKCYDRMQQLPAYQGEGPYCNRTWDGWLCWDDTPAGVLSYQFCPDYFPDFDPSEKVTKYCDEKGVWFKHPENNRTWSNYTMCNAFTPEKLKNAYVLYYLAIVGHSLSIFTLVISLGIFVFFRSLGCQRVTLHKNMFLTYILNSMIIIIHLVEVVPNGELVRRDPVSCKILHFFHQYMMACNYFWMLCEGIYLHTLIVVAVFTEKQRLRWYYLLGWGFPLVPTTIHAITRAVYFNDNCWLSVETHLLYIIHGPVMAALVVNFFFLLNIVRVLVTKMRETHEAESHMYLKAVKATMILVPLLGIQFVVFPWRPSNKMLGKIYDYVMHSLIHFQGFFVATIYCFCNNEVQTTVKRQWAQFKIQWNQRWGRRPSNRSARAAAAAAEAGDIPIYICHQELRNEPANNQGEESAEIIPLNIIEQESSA
T1 sequence (O60896 24-148 partner): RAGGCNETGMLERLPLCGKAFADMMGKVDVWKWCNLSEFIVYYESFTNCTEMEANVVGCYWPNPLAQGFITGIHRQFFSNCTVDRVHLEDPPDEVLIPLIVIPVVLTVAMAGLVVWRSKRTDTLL
In short: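 Stable hAMY3 cells; DPBS + 0.05% casein + 0.5 mM IBMX; graded compound doses, 30 min, RT; cAMP via HTRF Gs kit, TR-FRET read at 1 h.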

[1] = Physical stability of peptide analogues (Thioflavin T fibrillation); assay type: physicochemical; settings: maximum ThT signal normalized between hAMY maximum and buffer background; 40° C., shaking, four days; pH 7 per table title
In short: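 ThT fluorescence (450 nm excitation, 480 nm emission; 4 μM dye) was read every 10 min over four days at 40° C under 700 rpm shaking stress, after 1 h in pH 4 acetate or pH 7 phosphate (50 mM). Peak smoothed signal expressed as percent, scaled between buffer background and hAMY maximum.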

| SMILES | EC50 (hAMY3 receptor) [nM] | Max ThT signal (%) [1] [%] |
| --- | --- | --- |
| CC[C@H](C)[C@H](NC(=O)[C@H](CCC(N)=O)NC(=O)[C@H](Cc1c[nH]cn1)NC(=O)[C@H](C)NC(=O)[C@H](CC(C)C)NC(=O)[C@H](CCCNC(=N)N)NC(=O)[C@H](CCC(N)=O)NC(=O)[C@@H](NC(=O)[C@@H](NC(=O)[C@@H]1CSSC[C@H](NC(=O)CN)C(=O)N[C@@H](CCCNC(=N)N)C(=O)N[C@@H]([C@@H](C)O)C(=O)NCC(=O)N[C@@H]([C@@H](C)O)C(=O)N1)[C@@H](C)O)C(C)C)C(=O)N[C@@H](Cc1ccc(O)cc1)C(=O)N[C@@H](CCC(N)=O)C(=O)N[C@@H](Cc1ccccc1)C(=O)N[C@H](C(=O)N[C@@H](CC(=O)O)C(=O)N[C@@H](CCCCN)C(=O)N[C@@H](CC(=O)O)C(=O)N[C@@H](CCCCN)C(=O)N[C@@H](CC(=O)O)C(=O)N[C@@H](CC(N)=O)C(=O)N[C@H](C(=O)N[C@@H](C)C(=O)N1CCC[C@H]1C(=O)N[C@@H](CCCNC(=N)N)C(=O)N[C@@H](CO)C(=O)N[C@@H](CC(N)=O)C(=O)N[C@H](C(=O)NCC(=O)N1CCC[C@H]1C(=O)N[C@@H](CCC(N)=O)C(=O)NCC(=O)N1C[C@H](O)C[C@H]1C(N)=O)C(C)C)C(C)C)[C@@H](C)O [compound 121] (H-GCRTGTCTVQRLAHQIYQFTDKDKDNVAPRSNVGPQG[Hyp]-NH2; disulfide 2-7; N-terminus assumed) | 0.026 | 1.800 |
| CC[C@H](C)[C@H](NC(=O)[C@H](CCC(N)=O)NC(=O)[C@H](Cc1c[nH]cn1)NC(=O)[C@H](C)NC(=O)[C@H](CC(C)C)NC(=O)[C@H](CCCNC(=N)N)NC(=O)[C@H](CCC(N)=O)NC(=O)[C@@H](NC(=O)[C@@H](NC(=O)[C@@H]1CSSC[C@H](NC(=O)CN)C(=O)N[C@@H](CCCNC(=N)N)C(=O)N[C@@H](Cc2ccccc2)C(=O)NCC(=O)N[C@@H]([C@@H](C)O)C(=O)N1)[C@@H](C)O)C(C)C)C(=O)N[C@@H](Cc1ccc(O)cc1)C(=O)N[C@@H](CCC(N)=O)C(=O)N[C@@H](Cc1ccccc1)C(=O)N[C@H](C(=O)N[C@@H](CC(=O)O)C(=O)N[C@@H](CCCCN)C(=O)N[C@@H](CC(=O)O)C(=O)N[C@@H](CCCCN)C(=O)N[C@@H](CC(=O)O)C(=O)N[C@@H](CC(N)=O)C(=O)N[C@H](C(=O)N[C@@H](C)C(=O)N1CCC[C@H]1C(=O)N[C@@H](CCCNC(=N)N)C(=O)N[C@H](C(=O)N[C@@H](CC(N)=O)C(=O)N[C@H](C(=O)N[C@@H](CO)C(=O)N1CCC[C@H]1C(=O)N[C@@H](CCC(N)=O)C(=O)NCC(=O)N[C@@H](Cc1ccc(O)cc1)C(N)=O)C(C)C)[C@@H](C)O)C(C)C)[C@@H](C)O [compound 116] (H-GCRFGTCTVQRLAHQIYQFTDKDKDNVAPRTNVSPQGY-NH2; disulfide 2-7; N-terminus assumed) | 0.024 | 11.700 |
| CC[C@H](C)[C@H](NC(=O)[C@H](CCC(N)=O)NC(=O)[C@H](Cc1c[nH]cn1)NC(=O)[C@H](C)NC(=O)[C@H](CC(C)C)NC(=O)[C@H](CCCNC(=N)N)NC(=O)[C@H](CCC(N)=O)NC(=O)[C@@H](NC(=O)[C@@H](NC(=O)[C@@H]1CSSC[C@H](NC(=O)CN)C(=O)N[C@@H](CCCNC(=N)N)C(=O)N[C@@H]([C@@H](C)O)C(=O)NCC(=O)N[C@@H]([C@@H](C)O)C(=O)N1)[C@@H](C)O)C(C)C)C(=O)N[C@@H](Cc1ccc(O)cc1)C(=O)N[C@@H](CCC(N)=O)C(=O)N[C@@H](Cc1ccccc1)C(=O)N[C@H](C(=O)N[C@@H](CC(=O)O)C(=O)N[C@@H](CCCCN)C(=O)N[C@@H](CC(=O)O)C(=O)N[C@@H](CCCCN)C(=O)N[C@@H](CC(=O)O)C(=O)N[C@@H](CC(N)=O)C(=O)N[C@H](C(=O)N[C@@H](C)C(=O)N1CCC[C@H]1C(=O)N[C@@H](CCCNC(=N)N)C(=O)N[C@@H](CO)C(=O)N[C@@H](CC(N)=O)C(=O)N[C@H](C(=O)NCC(=O)N1CCC[C@H]1C(=O)N[C@@H](CCC(N)=O)C(=O)NCC(=O)N[C@@H](Cc1ccc(O)cc1)C(N)=O)C(C)C)C(C)C)[C@@H](C)O [compound 138] (H-GCRTGTCTVQRLAHQIYQFTDKDKDNVAPRSNVGPQGY-NH2; disulfide 2-7; N-terminus assumed) | 0.035 | 6.800 |
| CC[C@H](C)[C@H](NC(=O)[C@H](CCC(N)=O)NC(=O)[C@H](Cc1c[nH]cn1)NC(=O)[C@H](C)NC(=O)[C@H](CC(C)C)NC(=O)[C@H](CCCNC(=N)N)NC(=O)[C@H](CCC(N)=O)NC(=O)[C@@H](NC(=O)[C@@H](NC(=O)[C@@H]1CSSC[C@H](NC(=O)CN)C(=O)N[C@@H](CCCNC(=N)N)C(=O)N[C@@H]([C@@H](C)O)C(=O)NCC(=O)N[C@@H]([C@@H](C)O)C(=O)N1)[C@@H](C)O)C(C)C)C(=O)N[C@@H](Cc1ccc(O)cc1)C(=O)N[C@@H](CCC(N)=O)C(=O)N[C@@H](Cc1ccccc1)C(=O)N[C@H](C(=O)N[C@@H](CC(=O)O)C(=O)N[C@@H](CCCCN)C(=O)N[C@@H](Cc1ccccc1)C(=O)N[C@@H](CCCCN)C(=O)N[C@@H](CC(=O)O)C(=O)N[C@@H](CC(N)=O)C(=O)N[C@H](C(=O)N[C@@H](C)C(=O)N1CCC[C@H]1C(=O)N[C@@H](CCCNC(=N)N)C(=O)N[C@@H](CO)C(=O)N[C@@H](CCCCN)C(=O)N[C@H](C(=O)N[C@@H](CO)C(=O)N1CCC[C@H]1C(=O)N[C@@H](CCC(N)=O)C(=O)N[C@@H](Cc1c[nH]cn1)C(=O)N1C[C@H](O)C[C@H]1C(N)=O)[C@@H](C)CC)C(C)C)[C@@H](C)O [compound 201] (H-GCRTGTCTVQRLAHQIYQFTDKFKDNVAPRSKISPQH[Hyp]-NH2; disulfide 2-7; N-terminus assumed) | 0.126 | 1.000 |

Now from value to compound:

| EC50 (hAMY3 receptor) [nM] | Max ThT signal (%) [1] [%] | SMILES |
| --- | --- | --- |
| 0.02 | 18.000 | CC[C@H](C)[C@H](NC(=O)[C@H](CCC(N)=O)NC(=O)[C@H](Cc1c[nH]cn1)NC(=O)[C@H](C)NC(=O)[C@H](CC(C)C)NC(=O)[C@H](CCCNC(=N)N)NC(=O)[C@H](CCC(N)=O)NC(=O)[C@@H](NC(=O)[C@@H](NC(=O)[C@@H]1CSSC[C@H](NC(=O)CN)C(=O)N[C@@H](CCCNC(=N)N)C(=O)N[C@@H](Cc2ccccc2)C(=O)NCC(=O)N[C@@H]([C@@H](C)O)C(=O)N1)[C@@H](C)O)C(C)C)C(=O)N[C@@H](Cc1ccc(O)cc1)C(=O)N[C@@H](CCC(N)=O)C(=O)N[C@@H](Cc1ccccc1)C(=O)N[C@H](C(=O)N[C@@H](CC(=O)O)C(=O)N[C@@H](CCCCN)C(=O)N[C@@H](CC(=O)O)C(=O)N[C@@H](CCCCN)C(=O)N[C@@H](CC(=O)O)C(=O)N[C@@H](CC(N)=O)C(=O)N[C@H](C(=O)N[C@@H](C)C(=O)N1CCC[C@H]1C(=O)N[C@@H](CCCNC(=N)N)C(=O)N[C@@H](CO)C(=O)N[C@@H](CC(N)=O)C(=O)N[C@H](C(=O)NCC(=O)N1CCC[C@H]1C(=O)N[C@@H](CC(N)=O)C(=O)NCC(=O)N[C@@H](Cc1ccc(O)cc1)C(N)=O)C(C)C)C(C)C)[C@@H](C)O [compound 373] (H-GCRFGTCTVQRLAHQIYQFTDKDKDNVAPRSNVGPNGY-NH2; disulfide 2-7; N-terminus assumed) |
| 0.011 | 34.100 | CC[C@H](C)[C@H](NC(=O)[C@H](CC(N)=O)NC(=O)[C@@H](NC(=O)[C@H](CCCNC(=N)N)NC(=O)[C@@H]1CCCN1C(=O)[C@H](C)NC(=O)[C@@H](NC(=O)[C@H](CC(N)=O)NC(=O)[C@H](CC(=O)O)NC(=O)[C@H](CCCCN)NC(=O)[C@H](CC(=O)O)NC(=O)[C@H](CCCCN)NC(=O)[C@H](CC(=O)O)NC(=O)[C@@H](NC(=O)[C@H](Cc1ccccc1)NC(=O)[C@H](CCC(N)=O)NC(=O)[C@H](Cc1ccc(O)cc1)NC(=O)[C@@H](NC(=O)[C@H](CCC(N)=O)NC(=O)[C@H](Cc1c[nH]cn1)NC(=O)[C@H](C)NC(=O)[C@H](CC(C)C)NC(=O)[C@H](CCCNC(N)=O)NC(=O)[C@H](CCC(N)=O)NC(=O)[C@@H](NC(=O)[C@@H](NC(=O)[C@@H]1CSSC[C@H](NC(=O)CN)C(=O)N[C@@H](CCCNC(=N)N)C(=O)N[C@@H](Cc2ccccc2)C(=O)NCC(=O)N[C@@H]([C@@H](C)O)C(=O)N1)[C@@H](C)O)C(C)C)[C@@H](C)CC)[C@@H](C)O)C(C)C)[C@@H](C)O)C(=O)NCC(=O)N1CCC[C@H]1C(=O)N[C@@H](CCC(N)=O)C(=O)NCC(=O)N1C[C@H](O)C[C@H]1C(N)=O [compound 260] (H-GCRFGTCTVQ[Cit]LAHQIYQFTDKDKDNVAPRTNIGPQG[Hyp]-NH2; disulfide 2-7; N-terminus assumed) |
